The values below are quoted from earlier work in patent US20100273258A1, “Interactive Microenvironment System” (The Ohio State University, priority 2009, published 2010).

The subject of data set [1] is human breast cancer cell lines.
The test system of data set [2] is DNA methylation of cancer suppressor genes. The settings on record: versus 5-Aza-2′-deoxycystidine and Trichostatin A (TSA).

Molecules are shown by their SMILES.

For the compound `Cc1cc2c(C(C)C)c(O)c(O)c(C=O)c2c(O)c1-c1c(C)cc2c(C(C)C)c(O)c(O)c(C=O)c2c1O` (racemic) [(±)-GP], the anti-proliferative effects result in data set [1] (MCF-7, MCF-7Adr and MDA-MB-231 human breast cancer cell lines) is reported as “anti-proliferative effects”.
`Cc1cc2c(C(C)C)c(O)c(O)c(C=O)c2c(O)c1-c1c(C)cc2c(C(C)C)c(O)c(O)c(C=O)c2c1O` [(−)-GP]: the “demethylating agent compared with clinical drugs” value in data set [2] is “much better demethylating agent”. In data set [1] (previously published data), the “anti-human breast cancer proliferative potency relative to racemic (±)-GP” value is reported as 10 fold.
